From patent US20260042732A1, “Sulfur-containing Compounds and Compositions Thereof for Delivery of Nucleic Acids” (Poseida Therapeutics, Inc., priority 2022, published 2026) come the findings set out here.

“And” between values parts separate entries of the source, which are not always exact repeats. Equal values may be shown once.

The assay relates to cells in the liver. Nature of the assay: In vivo screening of LNPs comprising fLuciferase mRNA, bioluminescent imaging (BLI). The following applies: 0.5 mg/kg fLuciferase mRNA intravenously, BLI at 4 hr. More on the design: species or system BALB/C mice. Here is the method:
To formulate the LNPs, various percentages of one of COMPOUNDS 3, 6, or 12, the phospholipid (DOPE or DOPC), the structural lipid cholesterol (Chol) and 1,2-dimyristoyl-sn-glycerol methoxypolyethylene glycol (DMG-PEG2000; Avanti Polar Lipids, Alabaster, Alabama, USA) were combined to prepare LNP compositions.
Individual 25 mg/ml stock solutions were prepared by solubilizing the lipids in 200-proof HPLC-grade ethanol and stock solutions were stored at −80° C. until formulated. At the time of formulation, the lipid stock solutions were briefly allowed to equilibrate to room temp and then placed on a hot plate maintained at a temperature range of 50-55° C. Subsequently, the hot lipid stock solutions were combined to yield desired final mole percentages.
A 1 mg/ml solution of the 5′-CleanCap-fLuciferase mRNA (TriLink Biotech) to be incorporated into the LNPs was added to 150 mM sodium acetate buffer (pH 5.2) to form a stock solution and kept on ice. The lipid phase was mixed with the aqueous mRNA phase inside a microfluidic chip using a NanoAssemblr® instrument (Precision Nanosystems, Vancouver, BC, Canada) according to the manufacturer's instructions to form LNP compositions comprising encapsulated mRNAs.
The resultant mRNA LNP compositions were then transferred to a Repligen Float-A-Lyzer dialysis device—having a molecular weight cut off (MWCO) of 8-10 kDa (Spectrum Chemical Mfg. Corp, CA, USA) and processed by dialysis against phosphate buffered saline (PBS) (dialysate:dialysis buffer volume at least 1:200 v/v), pH 7.4 overnight at 4° C. (or alternatively room temperature for at least 4 hours), to remove the 25% ethanol and achieve a complete buffer exchange. […]
The location and extent of luciferase expression in treated and control mice were determined at 4 hr by bioluminescent imaging (BLI) of anesthetized mice using an IVIS Lumina in vivo imaging system (Perkin Elmer) according to the manufacturer's instructions. […]

With `CCCCCCCCCCC(CN(CCCN(C)CCCN(CC(CCCCCCCCCC)SSCCO)CC(CCCCCCCCCC)SSCCO)CC(CCCCCCCCCC)SSCCO)SSCCO` (stereo not drawn) [Compound 3], the “Mean Liver Luciferase Flux” value was 2.72E+08 p/s (LNP with 33.5% moles compound, 32% DOPE, 33.5% Chol, 1% PEG-DMG, lipid:RNA 40 w/w); 6.49E+10 p/s (LNP with 43.3% moles compound, 12% DOPC, 43.3% Chol, 1.5% PEG-DMG, lipid:RNA 100 w/w); 1.94E+11 p/s and 1.16E+11 p/s (LNP with 54% moles compound, 10% DOPC, 35% Chol, 1% PEG-DMG, lipid:RNA 100 w/w, 0.5 mg/kg).
